Results reported in patent US20020058694A1, “Ureido and thioureido derivatives of 4-amino-2(5H)-furanones and 4-amino-2(5H)-thiophenones as antitumor agents” (Roche Diagnostics GmbH, priority 1997, published 2002).
In brackets after ≈: the same amount, converted by molar mass.

Legend:
Assay type in all cases: cell-based
Details in all cases: 144 hours of incubation, concentration which causes the death of 50% of cell population
HCT 116 = test: MTT cytotoxicity assay, HCT 116 human colon tumor cell line
Procedure: (§1) The compounds of the invention were tested against three human colon tumor cell lines (HT 29, HCT 116 and LoVo). After 144 hours of incubation of the cells with the compound to be tested, the cytotoxicity is evaluated using the MTT assay (Mosman, T. “Rapid Colorimetric Assay for Cellular Growth and Survival: Application to Proliferation and Cytotoxicity Assay”; J. Immunol. Methods, (1983), 65, 66; Green, L. M., “Rapid Colorimetric Assay for Cell Viability; Application to the Quantitation of Cytotoxic and Growth Inhibitory Lymphokines”, J. Immunol. Methods, (1984), 70, 257-268). The results are expressed as IC50 ([…]), that it the concentration of the tested compound which causes the death of 50% of cell population.

LoVo = test: MTT cytotoxicity assay, LoVo human colon tumor cell line
Procedure: as §1

HT 29 = test: MTT cytotoxicity assay, HT 29 human colon tumor cell line
Procedure: as §1

Structure (SMILES) | IC50 (HCT 116) | IC50 (LoVo) | IC50 (HT 29)
CCc1ccc(NC(=O)NC2=CC(=O)OC2)cc1Cl [Example 3, 4-[N-(4-ethyl-3-chlorophenyl)aminocarbonylamino)-2(5H)-furanone] | < 0.01 µg/mL | 0.034 µg/mL (≈ 0.121 µM) | 0.003 µg/mL (≈ 0.0107 µM)
O=C(NC1=CC(=O)OC1)Nc1ccc(Cl)cc1 [Example 2, 4-[N-(4-chlorophenyl)aminocarbonylamino]-2(5H)-furanone] | 0.034 µg/mL (≈ 0.135 µM) | 0.01 µg/mL (≈ 0.0396 µM) | 0.032 µg/mL (≈ 0.127 µM)
